In this test the test system is M. tuberculosis. As to the kind of experiment: Extracellular activity against M. tuberculosis in cholesterol media (Alamar Blue reduction assay). Format: cell-based, Mycobacterium tuberculosis. As to conditions: Mycobacterium tuberculosis, 240 h, 7H12-Cholesterol media, 10 days; read-out: Cholesterol broth: alamar blue--EC50.

Structures are written as SMILES.

For the molecule `Cc1noc(CC(=O)N2CCC(c3nc(C45CCC(CC4)C5)no3)CC2)n1` [Compound 26, 1-(4-(3-(bicyclo[2.2.1]heptan-1-yl)-1,2,4-oxadiazol-5-yl)piperidin-1-yl)-2-(3-methyl-1,2,4-oxadiazol-5-yl)ethan-1-one], the EC50 is > 25 µM.

For `Cc1noc(CC(=O)N2CCC(c3nc(C4(C)CCCCC4)no3)CC2)n1` [Compound 27, 2-(3-methyl-1,2,4-oxadiazol-5-yl)-1-(4-(3-(1-methylcyclohexyl)-1,2,4-oxadiazol-5-yl)piperidin-1-yl)ethan-1-one], the EC50 was > 25 µM.

In the case of `Cc1noc(CC(=O)N2CCC(c3nc(C4CC4(C)C)no3)CC2)n1` (stereo not shown) [Compound 28, 1-(4-(3-(2,2-dimethylcyclopropyl)-1,2,4-oxadiazol-5-yl)piperidin-1-yl)-2-(3-methyl-1,2,4-oxadiazol-5-yl)ethan-1-one], the 50% effective concentration (EC50) was > 25 µM.

For `Cc1noc(CC(=O)N2CCC(c3nc(C4CCC(C)(C)C4)no3)CC2)n1` (stereo not shown) [Compound 29, 1-(4-(3-(3,3-dimethylcyclopentyl)-1,2,4-oxadiazol-5-yl)piperidin-1-yl)-2-(3-methyl-1,2,4-oxadiazol-5-yl)ethan-1-one], the 50% effective concentration (EC50) is 3.73 µM.

Take `Cc1noc(CC(=O)N2CCC(c3nc(C4CCC(C)(C)CC4)no3)CC2)n1` [Compound 30, 1-(4-(3-(4,4-dimethylcyclohexyl)-1,2,4-oxadiazol-5-yl)piperidin-1-yl)-2-(3-methyl-1,2,4-oxadiazol-5-yl)ethan-1-one]: the EC50 was determined as 1.14 µM.

For `Cc1noc(CC(=O)N2CCC(c3nc(C4C[C@@H](C)C[C@@H](C)C4)no3)CC2)n1` (stereo partly drawn) [Compound 31, 1-(4-(3-((3R,5S)-3,5-dimethylcyclohexyl)-1,2,4-oxadiazol-5-yl)piperidin-1-yl)-2-(3-methyl-1,2,4-oxadiazol-5-yl)ethan-1-one], the 50% effective concentration (EC50) is > 25 µM.

Take `Cc1noc(CC(=O)N2CCC(c3nc(-c4ccc(Cl)cc4Cl)no3)CC2)n1` [Compound 32, 1-(4-(3-(2,4-dichlorophenyl)-1,2,4-oxadiazol-5-yl)piperidin-1-yl)-2-(3-methyl-1,2,4-oxadiazol-5-yl)ethan-1-one]: the EC50 worked out at 0.718 µM.

Turning to `Cc1noc(CC(=O)N2CCC(c3nc(-c4ccc(Cl)c(Cl)c4)no3)CC2)n1` [Compound 33, 1-(4-(3-(3,4-dichlorophenyl)-1,2,4-oxadiazol-5-yl)piperidin-1-yl)-2-(3-methyl-1,2,4-oxadiazol-5-yl)ethan-1-one], the half-maximal effective concentration (EC50) was 0.14 µM.

As to `Cc1noc(CC(=O)N2CCC(c3nc(-c4ccc(Cl)cc4)no3)CC2)n1` [Compound 34, 1-(4-(3-(4-chlorophenyl)-1,2,4-oxadiazol-5-yl)piperidin-1-yl)-2-(3-methyl-1,2,4-oxadiazol-5-yl)ethan-1-one], the EC50 came to 0.399 µM.

For `Cc1noc(CC(=O)N2CCC(n3nnc(-c4ccc(Cl)cc4)n3)CC2)n1` [Compound 35, 1-(4-(5-(4-chlorophenyl)-2H-tetrazol-2-yl)piperidin-1-yl)-2-(3-methyl-1,2,4-oxadiazol-5-yl)ethan-1-one], the EC50 came out at 1.08 µM.

`Cc1noc(CC(=O)N2CCC(c3nc(-c4cccc(Cl)c4)no3)CC2)n1` [Compound 36, 1-(4-(3-(3-chlorophenyl)-1,2,4-oxadiazol-5-yl)piperidin-1-yl)-2-(3-methyl-1,2,4-oxadiazol-5-yl)ethan-1-one]: the EC50 was determined as 1.63 µM.

As for `Cc1noc(CC(=O)N2CCC(c3nc(C4CCC(C(F)(F)F)CC4)no3)CC2)n1` (stereo not shown) [Compound 37, 2-(3-methyl-1,2,4-oxadiazol-5-yl)-1-(4-(3-(4-(trifluoromethyl)cyclohexyl)-1,2,4-oxadiazol-5-yl)piperidin-1-yl)ethan-1-one], the EC50 was 7.02 µM.

In the case of `Cc1noc(CC(=O)N2CCC(c3nc(-c4ccc(Cl)c(OC(F)(F)F)c4)no3)CC2)n1` [Compound 38], the EC50 was 1.05 µM.

For `Cc1noc(CC(=O)N2CCC(c3nc(-c4ccc(OC(F)(F)F)cc4)no3)CC2)n1` [Compound 39, 2-(3-methyl-1,2,4-oxadiazol-5-yl)-1-(4-(3-(4-(trifluoromethoxy)phenyl)-1,2,4-oxadiazol-5-yl)piperidin-1-yl)ethan-1-one], the EC50 was found to be 0.657 µM.

`Cc1noc(CC(=O)N2CCC(c3nc(C4CCC(F)(F)C4)no3)CC2)n1` (stereo not shown) [Compound 40, 1-(4-(3-(3,3-difluorocyclopentyl)-1,2,4-oxadiazol-5-yl)piperidin-1-yl)-2-(3-methyl-1,2,4-oxadiazol-5-yl)ethan-1-one]: the EC50 is > 25 µM.

In the case of `Cc1noc(CC(=O)N2CCC(c3nc(C4CCC(F)(F)CC4)no3)CC2)n1` [Compound 41, 1-(4-(3-(4,4-difluorocyclohexyl)-1,2,4-oxadiazol-5-yl)piperidin-1-yl)-2-(3-methyl-1,2,4-oxadiazol-5-yl)ethan-1-one], the EC50 was > 10 µM.

Take `Cc1noc(CC(=O)N2CCC(O)(c3nc(C4CCC(F)(F)CC4)no3)CC2)n1` [Compound 42, 1-(4-(3-(4,4-difluorocyclohexyl)-1,2,4-oxadiazol-5-yl)-4-hydroxypiperidin-1-yl)-2-(3-methyl-1,2,4-oxadiazol-5-yl)ethan-1-one]: the half-maximal effective concentration (EC50) is > 10 µM.

As to `Cc1noc(CC(=O)N2CCC(c3noc(C45CC(F)(C4)C5)n3)CC2)n1` [Compound 43, 1-(4-(5-(3-fluorobicyclo[1.1.1]pentan-1-yl)-1,2,4-oxadiazol-3-yl)piperidin-1-yl)-2-(3-methyl-1,2,4-oxadiazol-5-yl)ethan-1-one], the EC50 was > 25 µM.

For the molecule `Cc1noc(CC(=O)N2CCC(c3nc(-c4ccc(Cl)c(F)c4)no3)CC2)n1` [Compound 44, 1-(4-(3-(4-chloro-3-fluorophenyl)-1,2,4-oxadiazol-5-yl)piperidin-1-yl)-2-(3-methyl-1,2,4-oxadiazol-5-yl)ethan-1-one], the EC50 was 0.229 µM.

Take `Cc1noc(CC(=O)N2CCC(c3nc(-c4cc(F)cc(Cl)c4)no3)CC2)n1` [Compound 45, 1-(4-(3-(3-chloro-5-fluorophenyl)-1,2,4-oxadiazol-5-yl)piperidin-1-yl)-2-(3-methyl-1,2,4-oxadiazol-5-yl)ethan-1-one]: the EC50 stood at 2.19 µM.

On to `Cc1noc(CC(=O)N2CCC(c3nc(-c4ccc(F)cc4Cl)no3)CC2)n1` [Compound 46, 1-(4-(3-(2-chloro-4-fluorophenyl)-1,2,4-oxadiazol-5-yl)piperidin-1-yl)-2-(3-methyl-1,2,4-oxadiazol-5-yl)ethan-1-one], for which the EC50 stood at 2.97 µM.

In the case of `Cc1noc(CC(=O)N2CCC(c3nc(-c4ccc(F)c(F)c4)no3)CC2)n1` [Compound 47, 1-(4-(3-(3,4-difluorophenyl)-1,2,4-oxadiazol-5-yl)piperidin-1-yl)-2-(3-methyl-1,2,4-oxadiazol-5-yl)ethan-1-one], the EC50 turned out to be 1.45 µM.

Take `Cc1noc(CC(=O)N2CCC(c3nc(-c4ccc(F)c(OC(F)(F)F)c4)no3)CC2)n1` [Compound 48, 1-(4-(3-(4-fluoro-3-(trifluoromethoxy)phenyl)-1,2,4-oxadiazol-5-yl)piperidin-1-yl)-2-(3-methyl-1,2,4-oxadiazol-5-yl)ethan-1-one]: the half-maximal effective concentration (EC50) was 0.73 µM.

Take `Cc1noc(CC(=O)N2CCC(c3nc(-c4ccc(F)cc4)no3)CC2)n1` [Compound 49, 1-(4-(3-(4-fluorophenyl)-1,2,4-oxadiazol-5-yl)piperidin-1-yl)-2-(3-methyl-1,2,4-oxadiazol-5-yl)ethan-1-one]: the EC50 is 1.44 µM.

As to `Cc1noc(CC(=O)N2CCC(c3cc(-c4ccc(F)cc4)no3)CC2)n1` [Compound 50, 1-(4-(3-(4-fluorophenyl)isoxazol-5-yl)piperidin-1-yl)-2-(3-methyl-1,2,4-oxadiazol-5-yl)ethan-1-one], the EC50 was > 10 µM.

Take `Cc1noc(CC(=O)N2CCC(n3nnc(-c4ccc(F)cc4)n3)CC2)n1` [Compound 51, 1-(4-(5-(4-fluorophenyl)-2H-tetrazol-2-yl)piperidin-1-yl)-2-(3-methyl-1,2,4-oxadiazol-5-yl)ethan-1-one]: the EC50 turned out to be 7.64 µM.

Consider `Cc1noc(CC(=O)N2CCC(c3nc(-c4ccc(F)cc4)co3)CC2)n1` [Compound 52, 1-(4-(4-(4-fluorophenyl)oxazol-2-yl)piperidin-1-yl)-2-(3-methyl-1,2,4-oxadiazol-5-yl)ethan-1-one], for which the EC50 was > 10 µM.

On to `Cc1noc(CC(=O)N2CCC(c3noc(-c4ccc(F)cc4)n3)CC2)n1` [Compound 53, 1-(4-(5-(4-fluorophenyl)-1,2,4-oxadiazol-3-yl)piperidin-1-yl)-2-(3-methyl-1,2,4-oxadiazol-5-yl)ethan-1-one], for which the EC50 was > 10 µM.

Consider `Cc1noc(CC(=O)N2CCC(O)(c3nc(-c4ccc(F)cc4)no3)CC2)n1` [Compound 54, 1-(4-(3-(4-fluorophenyl)-1,2,4-oxadiazol-5-yl)-4-hydroxypiperidin-1-yl)-2-(3-methyl-1,2,4-oxadiazol-5-yl)ethan-1-one], for which the EC50 was > 10 µM.

Take `Cc1nocc1CC(=O)N1CCC(c2nc(C3CCCCC3)no2)CC1` [Compound 55, 1-(4-(3-cyclohexyl-1,2,4-oxadiazol-5-yl)piperidin-1-yl)-2-(3-methylisoxazol-4-yl)ethan-1-one]: the EC50 is > 25 µM.

Turning to `Cc1nocc1CC(=O)N1CCC(n2nnc(C3CCCCC3)n2)CC1` [Compound 56, 1-(4-(5-cyclohexyl-2H-tetrazol-2-yl)piperidin-1-yl)-2-(3-methylisoxazol-4-yl)ethan-1-one], the EC50 was > 25 µM.

Take `Cc1nocc1CC(=O)N1CCC(c2nc(-c3ccc(Cl)c(Cl)c3)no2)CC1` [Compound 57, 1-(4-(3-(3,4-dichlorophenyl)-1,2,4-oxadiazol-5-yl)piperidin-1-yl)-2-(3-methylisoxazol-4-yl)ethan-1-one]: the EC50 amounted to 0.691 µM.

Take `Cc1nocc1CC(=O)N1CCC(c2nc(-c3ccc(F)cc3)no2)CC1` [Compound 58, 1-(4-(3-(4-fluorophenyl)-1,2,4-oxadiazol-5-yl)piperidin-1-yl)-2-(3-methylisoxazol-4-yl)ethan-1-one]: the EC50 is 2.15 µM.

As to `Cc1nonc1CC(=O)N1CCC(n2cc(C(=O)N3CCOCC3)nn2)CC1` [Compound 60, 2-(4-methyl-1,2,5-oxadiazol-3-yl)-1-(4-(4-(morpholine-4-carbonyl)-1H-1,2,3-triazol-1-yl)piperidin-1-yl)ethan-1-one], the EC50 is > 10 µM.

For the origin of these results see patent publication US20260048047A1, “SMALL-MOLECULE ACTIVATORS OF MYCOBACTERIUM TUBERCULOSIS ADENYLYL CYCLASE” (priority 2022, published 2026).
